Measured values: patent publication US20240108002A1, “1-AMINO-1-CYCLOPROPANECARBOXYLIC ACID AND PROHYDROJASMON MIXTURES AND USES THEREOF” (Valent BioSciences LLC, priority 2022, published 2024)

Tested on: Imperial Gala apples
Test: Apple coloration in Imperial Gala variety, percent red pixel area after foliar spray
Type: in vivo
Settings: for Average % Red Pixel Area: foliar spray, 34 hours post spray; for Fold Change From control: vs 0.05% Regulaid control
Procedure: 10 sets of unripened apples, Imperial Gala variety, harvested three weeks before the normal harvest date, were each foliar sprayed with either 1) 0.05% Regulaid® as a control, 2) 50 ppm prohydrojasmon, 3) 300 ppm prohydrojasmon, 4) 50 ppm ACC, 5) 300 ppm ACC or 6) a mixture of 50 ppm prohydrojasmon and 50 ppm ACC or 7) a mixture of 300 ppm prohydrojasmon and 300 ppm ACC. 34 hours post spray application percent red pixel area (shaded) was measured. Percent red pixel area is an indication of the coloration of the apple fruit.
To determine if the mixture provided unexpected results, the observed combined efficacy (“OCE”) was divided by the expected combined efficacy (“ECE”) wherein the ECE is calculated by the Abbott method: […]
wherein ECE is the expected combined efficacy and in which A and B are the fold change from control given by the single active ingredients. If the ratio between the OCE of the mixture and the ECE of the mixture is greater than 1, then greater than expected interactions are present in the mixture. (Gisi, Synergistic Interaction of Fungicides in Mixtures, The American Phytopathological Society, 86:11, 1273-1279,1996).

SMILES	Average % Red Pixel Area (single active at 50 ppm)	Fold Change From control (single active at 50 ppm)	Average % Red Pixel Area (single active at 300 ppm)	Fold Change From control (single active at 300 ppm)
NC1(C(=O)O)CC1 [ACC, 1-amino-1-cyclopropanecarboxylic acid]	7.02%	0.03	4.66%	−0.31
CCCCCC1C(=O)CCC1CC(=O)OCCC (centres unmarked) [prohydrojasmon]	15.84%	1.33	21.03%	2.09
